Reference: US5476933A, “Azepine synthesis via a diels-alder reaction” (priority 1994, dated 1995)
Where two headings read alike, the source gives them in different places.

What was measured:
[1] = tested on: neurons in brain ischemia; details: literature; cited from earlier work
[2] = molecular target: T1, glycine binding site of the NMDA receptor (Rattus norvegicus, UniProt P35439); assay: 1 μM glycine-stimulated [3H]-MK-801 binding, rat brain membrane homogenates; details: for IC50: rat brain homogenates, [3H]-MK-801 binding, 1 μM glycine; for activity (glycine receptor antagonism), in words: structure-activity statements
T1 construct: rat brain membrane homogenates which are enriched in NMDA receptors; tissue Pel-Freez, Rogers, Ark; host or cells: whole rat brain, washed membrane homogenate
Protocol: ^a Experiments described herein utilizing rat brain homogenates and a
The assay is conducted using rat brain membrane homogenates which are enriched in NMDA receptors. The membranes are prepared as follows. Frozen rat brains (obtained from Pel-Freez, Rogers, Ark.) are homogenized in 15 volumes (w/v) of ice cold 0.32M sucrose. The homogenate is spun at 1,000×g for ten minutes. The supernatant is collected and spun for 20 minutes at 44,000×g. The pellet is suspended in 15 volumes of water (relative to original brain weight). The homogenate is again spun at 44,000×g for twenty minutes. The pellet is resuspended in 5 volumes of water and the suspension is freeze-thawed 2 times. After the final thaw cycle, the suspension is brought to 15 volumes with water and spun at 44,000×g for twenty minutes. The pellet is resuspended in 5 volumes of ice-cold 10 mM HEPES, and is titrated to pH 7.4 with KOH containing 0.04% Triton X-100. Membranes are incubated with the Triton/HEPES buffer at 37° C. for 15 minutes. The volume is then brought to 15 with ice-cold 10 mM HEPES, pH 7.4, and spun/washed three times with spins of 44,000×g between washes. The final pellet is suspended in three volumes of 50 mM HEPES, pH 7.4 and the protein concentration is determined with a standard dye-binding protein assay (Bio-Rad, Richmond, Calif.). The suspension is stored at -80° C. until used. Only HPLC grade water is used for all buffers and suspensions/washings. The extensive washings are necessary to remove as much endogenous glycine from the membrane preparation as possible.
Nonspecific binding is defined as the […] presence of PCP (final concentration: 100 μM). […] A 500 nM concentration (final) of 5,7-dichlorokynurenic (DCK) acid is added to all assay tubes. This concentration of the glycine antagonist DCK "buffers" most of the residual endogenous glycine that is not removed by the extensive washing steps that are carried out during the membrane preparation procedure.
The assays are incubated for 120 minutes at room temperature after which time the membrane-bound radioactivity is isolated from the free radioactivity by vacuum filtration through Whatman glass fiber filters that had been pretreated with 0.3% polyethyleneimine. Filtration is accomplished using a Brandel 48 well cell harvester. Filtered membranes are washed three times with 3 mL each of ice cold buffer. Filters are transferred to scintillation vials and 5 mL of scintillation cocktail is added. The vials are shaken overnight and the radioactivity is counted by liquid scintillation spectroscopy. The assays are done in triplicate and all experiments are conducted at least three times.
Inhibition dose response curves are constructed using increasing concentrations of glycine antagonists from 5 nM to 330 μM.
After constructing inhibition dose response curves and determination of glycine reversibility, Ki values for the glycine antagonists are calculated using the Cheng and Prusoff equation employing the experimentally determined IC50 values, the known concentration of glycine in the assay (1 μM) and the known affinity of glycine for the glycine binding site of the NMDA receptor (100 nM).
Binding Assays and In Vivo Studies.

[3] = tested on: male Swiss/Webster mice; assay: maximum electroshock-induced seizure (MES) assay; type: in vivo, mouse; details: anticonvulsant, MES in mice; for ED50: Mus musculus, iv
Protocol: The anticonvulsant activity of the glycine antagonists may be assessed in the maximum electroshock-induced seizure (MES) assay in mice. […] The seizure stimulus parameters are 50 mA, 60 Hz, rectangular pulse, width 0.8 msec, duration 200 msec. Tonic hind limb extension observed after application of the electrical stimulus is recorded as occurrence of seizure.

[4] = molecular target: T2, glycine/NMDA receptor (Rattus norvegicus, UniProt P35439); assay: electrophysiology using Xenopus oocytes; type: cell-based
T2 construct: expressed in transfected cells; host or cells: Xenopus oocytes (RNA injected)

[5] = tested on: rodents; details: literature; cited from earlier work
[6] = tested on: pigeons; details: literature; cited from earlier work
[7] = molecular target: strychnine insensitive glycine site associated with the NMDA receptor complex; details: Swartz et al., cited from earlier work; for Kb: Mol. Pharmacol. 41:1130-1141 (1992), footnote d
[8] = tested on: glycine binding site of the NMDA receptor; details: cited from earlier work; for affinity / antagonism at the glycine binding site, in words: literature
[9] = literature; cited from earlier work
[10] = crossing of the blood/brain barrier; details: inferred from Ki and MES ED50
[11] = tested on: guinea pig ileum; details: guinea pig ileum contraction; footnote c; cited from earlier work
[12] = molecular target: strychnine insensitive glycine site associated with the NMDA receptor complex; details: rat brain homogenates, [3H]-glycine binding; footnote b; cited from earlier work
[13] = from electrophysiology using Xenopus oocytes unless otherwise noted, read-out: Ki

O=C(O)C1CC2CC(CP(=O)(O)O)CCC2CN1 (stereo not shown) [LY274614]
neuroprotective efficacy, in words [1]: neuroprotective efficacy

O=c1cc(O)c(=O)[nH]c2c1CC(Cl)C(Cl)C2 (stereo not shown) [Compound 74, 3-Hydroxy-7,8-dichloro-6,7,8,9-tetrahydro-1H-1-benzazepine-2,5-dione]
IC50 ([2]; read-out: IC50): 3.6 µM
ED50 [3]: 30 mg/kg
Ki [4, 13]: 0.03 µM

c1ccc(C2(N3CCCCC3)CCCCC2)cc1 [PCP, phencyclidine]
PCP-like behavioral effects, in words [5]: behavioral excitation (hyperlocomotion)
katalepsy, in words [6]: characteristic katalepsy in pigeons
neuroprotective efficacy, in words [1]: neuroprotective efficacy both in vitro and in vivo

Cc1cc(C)c2[nH]c(=O)c(O)cc(=O)c2c1 [Compound 44, 3-Hydroxy-7,9-dimethyl-1H-1-benzazepine-2,5-dione]
IC50 [2]: inactive

O=c1[nH]c2ccc(Br)cc2c(=O)cc1O [Compound 15]
IC50 [2]: Inactive

O=c1[nH]c2ccccc2c(=O)cc1O [Compound 1, 3-hydroxy-1H-1-benzazepine-2,5-dione]
IC50 ([2]; read-out: IC50): 7.8 µM
Kb [7]: 3 µM
antagonism, in words [7]: antagonists at the strychnine insensitive glycine site

Cc1cccc2[nH]c(=O)c(O)cc(=O)c12 [Compound 93, 3-Hydroxy-6-methyl-1H-1-benzazepine-2,5-dione]
IC50 ([2]; read-out: IC50): 196 µM

Cc1ccc2c(=O)cc(O)c(=O)[nH]c2c1 [Compound 3]
IC50 ([2]; read-out: IC50): 3.4 µM
activity (glycine receptor antagonism), in words [2]: enhanced activity
Kb [7]: 0.47 µM
antagonism, in words [7]: antagonists at the strychnine insensitive glycine site

O=C(O)c1cc2ccccc2[nH]1 [indole-2-carboxylic acid]
affinity / antagonism at the glycine binding site, in words [8]: relatively high receptor binding affinity in vitro
blood/brain barrier penetration, in words [9]: cannot penetrate the blood/brain barrier

O=c1[nH]c2ccc([N+](=O)[O-])cc2c(=O)cc1O [Compound 11]
IC50 ([2]; read-out: IC50): 300 µM

O=c1cc(O)c(=O)[nH]c2c1C1CCC2C1 (stereo not shown) [Compound 70, 3-hydroxy-6,9-methano-6,7,8,9-tetrahydro-1H-1-benzazepine-2,5-dione]
Ki ([2]; from binding assays (footnote d of Table 2)): 0.76 µM
IC50 ([2]; read-out: IC50): 8.4 µM

O=c1cc(O)c(=O)[nH]c2c1C1CCC2CC1 [Compound 87, 6,9-Ethano-3-hydroxy-6,7,8,9-tetrahydro-1H-1-benzazepine-2,5-dione]
IC50 ([2]; read-out: IC50): 6.7 µM
ED50 [3]: 8 mg/kg
Ki [4, 13]: 0.332 µM

O=c1[nH]c2cc(Cl)c(Cl)c([N+](=O)[O-])c2[nH]c1=O [6,7-dichloro-5-nitro-1,4-dihydroquinoxaline-2,3-dione]
ED50 (MES) [3]: 4 to 5 mg/kg
Ki [4]: 0.0033 µM

O=C(O)c1cc(O)c2ccc(Cl)cc2n1 [7-Cl-kynurenic acid]
affinity / antagonism at the glycine binding site, in words [8]: relatively high receptor binding affinity in vitro
blood/brain barrier penetration, in words [9]: cannot penetrate the blood/brain barrier

O=c1[nH]c2cc(C(F)(F)F)ccc2c(=O)cc1O [Compound 16]
IC50 ([2]; read-out: IC50): 3.4 µM
activity (glycine receptor antagonism), in words [2]: enhanced activity

Cc1cc2[nH]c(=O)c(O)cc(=O)c2cc1C [Compound 46, 3-Hydroxy-7,8-dimethyl-1-benzazepine-2,5-dione]
IC50 ([2]; read-out: IC50): 7.3 µM

O=c1cc(O)c(=O)[nH]c2c1CCCC2 [Compound 61, 3-Hydroxy-6,7,8,9-tetrahydro-1H-1-benzazepine-2,5-dione]
IC50 ([2]; read-out: IC50): 34 µM
crossing the blood-brain-barrier, relative to 6,7-dichloro-5-nitro-1,4-dihydroquinoxaline-2,3-dione [10]: about 100 times
ED50 [3]: 8 mg/kg
Ki [4, 13]: 1.65 µM

Cc1ccc(C)c2c(=O)cc(O)c(=O)[nH]c12 [Compound 45, 3-Hydroxy-6,9-dimethyl-1H-1-benzazepine-2,5-dione]
IC50 [2]: inactive

O=C(O)c1cc(O)c2c(Cl)cc(Cl)cc2n1 [5,7-dichlorokynurenic acid (DCK), 5,7-dichlorokynurenic acid]
affinity / antagonism at the glycine binding site, in words [8]: relatively high receptor binding affinity in vitro

Cc1cccc2c(=O)cc(O)c(=O)[nH]c12 [Compound 43, 3-Hydroxy-9-methyl-1H-1-benzazepine-2,5-dione]
IC50 [2]: inactive

Cc1ccc2[nH]c(=O)c(O)cc(=O)c2c1C [Compound 109, 6,7-dimethyl-3-hydroxy-1H-1-benzazepine-2,5-dione]
IC50 [2]: inactive

CC1c2c([nH]c(=O)c(O)cc2=O)CC(Cl)C1Cl (stereo not shown) [Compound 112, 7,8-dichloro-3-hydroxy-6-methyl-6,7,8,9-tetrahydro,1H-1-benzazepine-2,5-dione]
IC50 ([2]; read-out: IC50): 0.38 µM
Ki [4, 13]: 0.007 µM

Cc1ccc2[nH]c(=O)c(O)cc(=O)c2c1 [Compound 2]
Kb [7]: 9.5 µM
antagonism, in words [7]: antagonists at the strychnine insensitive glycine site

[N-]=[N+]=Nc1ccc2[nH]c(=O)c(O)cc(=O)c2c1 [Compound 14]
IC50 [2]: Inactive

O=C(Nc1ccc2[nH]c(=O)c(O)cc(=O)c2c1)C(F)(F)F [Compound 13]
IC50 [2]: Inactive

O=c1[nH]c2cc(Cl)ccc2c(=O)cc1O [Compound 6]
IC50 ([2]; read-out: IC50): 2.5 µM
activity (glycine receptor antagonism), in words [2]: enhanced activity
IC50 [11]: 0.11 µM
IC50 [12]: 0.03 µM

O=C(O)[C@@H]1C[C@H](CP(=O)(O)O)CCN1 [CGS 19755]
PCP-like behavioral effects, in words [5]: adverse PCP-like behavioral side effects
neuroprotective efficacy, in words [1]: neuroprotective efficacy

CC1Cc2[nH]c(=O)c(O)cc(=O)c2CC1C (stereo not shown) [Compound 81, 7,8-dimethyl-3-hydroxy-6,7,8,9-tetrahydro-1H-1-benzazepine-2,5-dione]
IC50 ([2]; read-out: IC50): 9.28 µM
ED50 [3]: 6 mg/kg
Ki [4, 13]: 0.177 µM

O=c1[nH]c2cc(F)ccc2c(=O)cc1O [Compound 5]
IC50 ([2]; read-out: IC50): 1.7 µM
activity (glycine receptor antagonism), in words [2]: enhanced activity

NC1CCN(O)C1=O (stereo not shown) [HA-966]
affinity / antagonism at the glycine binding site, in words [8]: partial agonist with micromolar affinity for the glycine binding site
blood/brain barrier penetration, in words [9]: sufficiently penetrates the blood/brain barrier

NCC(=O)O [glycine]
Kd ([8]; used in Cheng and Prusoff equation, read-out: known affinity of glycine for the glycine binding site of the NMDA receptor): 0.1 µM

Cc1cc2[nH]c(=O)c(O)cc(=O)c2c(C)c1[N+](=O)[O-] [Compound 99, 6,8-Dimethyl-3-hydroxy-7-nitro-1H-1-benzazepine-2,5-dione]
IC50 ([2]; read-out: IC50): 69.5 µM

O=c1[nH]c2cc(Br)ccc2c(=O)cc1O [Compound 7]
IC50 ([2]; read-out: IC50): 1.3 µM
activity (glycine receptor antagonism), in words [2]: enhanced activity
IC50 [11]: 1 µM
IC50 [12]: 0.097 µM

Cc1cc(C)c2c(=O)cc(O)c(=O)[nH]c2c1 [Compound 97, 6,8-Dimethyl-3-hydroxy-1H-1-benzazepine-2,5-dione]
IC50 ([2]; read-out: IC50): 26 µM

CC(=O)Nc1ccc2[nH]c(=O)c(O)cc(=O)c2c1 [Compound 12]
IC50 ([2]; read-out: IC50): 92.5 µM
